Measurements reported in patent US20090298068A1, “METHOD AND TEST KIT FOR THE DIAGNOSIS AND/OR MAKING PREDICTIONS ABOUT AND/OR FOR THE ASSESSMENT OF THE EFFICACY OF THERAPEUTIC AGENTS FOR THE TREATMENT OF OVARIAN CANCER AND METHOD OF PLANNING A REGIMEN FOR THE TREATMENT OF OVARIAN CANCER” (priority 2006, published 2009).

System: TUSC3 expression in the hypermethylated MZ6 cell line
Assay: Restoration of TUSC3 expression by DNA demethylation in ovarian cancer cell lines (real time RT-PCR)
Type: cell-based, human
Settings: 72-hour treatment
Procedure: In addition, 32 ovarian cancer cell lines were studied, which were started from ovarian cancer tissue samples of 28 patients and cultivated as described (Mobus V1 Gerharz C D, Press U, et al, Morphological, immunohistochemical and biochemical characterization of 6 newly established human ovarian carcinoma cell lines. Int J Cancer. 1992; 52:76-84).
For bisulfite treatment, 1 μg genomic DNA was digested with the restriction enzymes Hind III and Xba I, precipitated, dissolved and denatured for 20 minutes in 0.35 M NaOH. Then, the DNA was treated in 8 cycles (2 hrs. 75° C. and 1 min. 95° C.) with 1.75 M sodium bisulfite, 5.23 M urea and 0.52 mM hydroquinone in a PCR cycler. Using the QIAEX II Gel Extraction Kit (Qiagen, Hilden, Germany), the DNA was cleaned and the reaction was ended with 0.32 M NaOH (20 min. 37° C.). Finally, the DNA was precipitated with 1 μl glycogen with NH4 acetate EtOH as the carrier, rinsed with 70% EtOH and dissolved in 40 μl H2O. […] The PCR products were analyzed on 3% agarose gel, stained with ethidium bromide. […] DNA demethylation of the cancer cell lines was carried out by a 72-hour treatment with 1 and 2.5 μM 5-aza-deoxycytidine (Sigma-Aldrich, St. Louis, Mo., USA) in cell culture medium, and the relative TUSC3 expression was evaluated by real time RT-PCR as described below. […]

## Nc1ncn([C@H]2C[C@H](O)[C@@H](CO)O2)c(=O)n1 [5-aza-deoxycytidine]
2.5 μM, MZ6 cell line, sham-treated below detection limit, mean of three experiments
  TUSC3 expression, times greater than sham-treated samples (relative to B-2-microglobulin): at least 9.5 times
1 and 2.5 μM, hypermethylated MZ6 cell line, concentration-dependent
  Restoration of TUSC3 expression: restoration of TUSC3 expression
